{"source": "patent US20130123201A1", "about": "“MODULATION OF CYTOKINE-INDUCED CHRONIC INFLAMMATORY RESPONSES” (UNIVERSITY OF MANITOBA, priority 2010, published 2013)", "key": {"[1]": {"system": "Human fibroblast-like synovial (FLS) cells", "experiment": "ELISA of chemokine production in FLS tissue culture supernatants", "assay_type": "cell-based", "experimental": "ELISA immunoassay: Tissue culture supernatants were centrifuged at 1500× g for 5-7 min to obtain cell-free samples and the aliquots were stored at −20° C. until further use. Production of chemokine Gro-α was monitored in the tissue culture supernatants by ELISA employing human Gro-α DuoSet (R&D Systems Inc.) as per the manufacturer's instructions. Production of cytokine TNF-α was monitored in the tissue culture supernatants using specific antibody pairs from eBioscience, Inc., and production of IL-8 was monitored using specific antibody pairs from R&D Systems, Inc., as per the manufacturer's instructions. The concentration of the cytokines or chemokines in the tissue culture supernatants was evaluated by establishing a standard curve with serial dilutions of the recombinant human cytokines or chemokines as required.\nELISA immunoassay: Tissue culture supernatants were centrifuged at 1500× g for 5-7 min to obtain cell-free samples and the aliquots were stored at −20° C. until further use. Production of chemokine Gro-α was monitored in the tissue culture supernatants by ELISA employing human Gro-α DuoSet (R&D Systems Inc.) per the manufacturer's instructions. […] The concentrations of the cytokines or chemokines in the tissue culture supernatants were evaluated by establishing a standard curve with serial dilutions of the recombinant human cytokines or chemokines as required."}, "[2]": {"system": "phospho-DAPK (Ser308)", "experiment": "Immunoblot with phospho-DAPK (Ser308) antibody", "assay_type": "cell-based, human", "conditions": "within 15 min, compared to un-stimulated cells", "experimental": "Immunoblots: Cell lysates were prepared in lysis buffer containing 20 mM Tris-HCl pH 7.5, 150 mM NaCl, 1 mM EDTA, 1 mM EGTA, 1 mM sodium fluoride, 1 mM sodium orthovanadate, 2.5 mM sodium pyrophosphate, protease inhibitor cocktail (Sigma-Aldrich) and 1% (v/v) Triton X-100. The lysates were electrophoretically resolved on a 4-12% NuPAGE® Bis-Tris gels (Invitrogen Corporation, Burlington, ON, Canda), followed by transfer to nitrocellulose membranes (Millipore, Canada). The membranes were subsequently probed with either phospho-p300 (Ser1834) polyclonal antibody, monoclonal antibody against phospho-DAPK (Ser308) or monoclonal antibody to glyceraldehyde-3-phosphate dehydrogenase (GAPDH) in TBST (20 mM Tris pH 7.5, 150 mM NaCl, 0.1% Tween 20) containing 5% skimmed milk powder. Affinity purified HRP-linked horse anti-mouse or goat anti-rabbit antibodies were used for detection as required. The membranes were development with Amersham ECL detection system (GE Healthcare, Baie d'Urfe QC, Canada) according to the manufacturer's instructions.\nImmunoblots: Cell lysates were prepared in lysis buffer containing 20 mM Tris-HCl pH 7.5, 150 mM NaCl, 1 mM EDTA, 1 mM EGTA, 1 mM sodium fluoride, 1 mM sodium orthovanadate, 2.5 mM sodium pyrophosphate, protease inhibitor cocktail (Sigma-Aldrich Canada Inc.) and 1% (v/v) Triton X-100. […]"}, "[3]": {"system": "NF-κB in rabbit synoviocyte HIG-82 cells", "experiment": "NF-κB-reporter luminescence assay", "assay_type": "cell-based", "conditions": "rabbit synovial fibroblast cell line HIG-82, 4 and 6 hr", "experimental": "NF-κB-reporter luminensence assay: Rabbit synoviocyte HIG-82 cells were transiently transfected with pNFκB-MetLuc2-Reporter Vector (Clontech laboratories Inc., Mountain View, Calif., USA) or the provided control vector as per the manufacturer's instructions. Various stimulants were added to the transfected cells in culture media containing 1% (v/v) FBS. The cells were stimulated with either recombinant human IL-32 or IL-17, and in parallel with known activators of NF-κB such as pro-inflammatory recombinant human cytokines TNF-αand IL-1β, or bacterial lipopolysaccharide (LPS), for 4 or 6 hr. The activation of NF-κB was monitored by employing the Ready-To-Glow Secreted NF-κB Luciferase Reporter Assay (Clontech) as per the manufacturer's instructions.\nNF-κB-reporter luminensence assay: In order to monitor direct NF-κB activation in synoviocytes, a rabbit synoviocyte cell line, HIG-82 (ATCC® CRL-1832) was transiently transfected with pNFκB-MetLuc2-Reporter Vector (Clontech laboratories Inc., Mountain View, Calif., USA) or the provided control vector as per the manufacturer's instructions. Various stimulants were added to the transfected cells in culture media containing 1% (v/v) FBS. […] The activation of NF-κB was monitored by employing the Ready-To-Glow Secreted NF-κB Luciferase Reporter Assay (Clontech Laboratories Inc.) per the manufacturer's instructions."}}, "note": "Entries after “also recorded” stand apart in the source; their conditions may differ.", "data": [{"substance": "IL-17: Recombinant human cytokine IL-17A/F from eBioscience, used as stimulant", "values": [{"measurement": "Chemokine Gro-α production", "setting": "[1]", "value": "robust induction; also recorded: robust Gro-α production"}, {"measurement": "Effect on TNF-α-induced chemokine Gro-α production", "setting": "[1]; TNF-α 10 ng/mL plus cytokine 20 ng/mL, 24 hr", "value": "synergistically enhanced"}, {"measurement": "Phosphorylation of DAPK (Ser308) by immunoblot", "setting": "[2]", "value": "increased phosphorylation"}, {"measurement": "Activation of transcription factor NF-κB", "setting": "[3]", "value": "induced direct activation; also recorded: activated"}]}]}
